# Experimental data taken from patent publication US9676732B2, “Ethynyl derivatives” (Hoffmann-La Roche Inc., priority 2013, dated 2017).
# Target: human mGlu4 receptor (Homo sapiens (Human), UniProt Q14833)
# Assay: Ca2+ mobilization in vitro assay on recombinant human mGlu4 expressed in HEK293 cells (mGlu4 PAM)
# Format: cell-based
# Settings: for EC50: HEK293 cells stably expressing human mGlu4, L-AP4 added at EC20, read-out: EC50 (nM) mGlu4PAM; for Eff. (%): maximal response in % of the maximal stimulatory effect obtained with saturating concentrations of L-AP4
# Method: Determination of EC50 Values Using a Ca2+ Mobilization In Vitro Assay on Recombinant Human mGlu4 Expressed in HEK293 Cells:
# A monoclonal HEK-293 cell line stably transfected with a cDNA encoding for the human mGlu4 receptor was generated; for the work with mGlu4 Positive Allosteric Modulators (PAMs), a cell line with low receptor expression levels and low constitutive receptor activity was selected to allow the differentiation of agonistic versus PAM activity. Cells were cultured according to standard protocols (Freshney, 2000) in Dulbecco's Modified Eagle Medium with high glucose supplemented with 1 mM glutamine, 10% (vol/vol) heat-inactivated bovine calf serum, Penicillin/Streptomycin, 50 μg/ml hygromycin and 15 μg/ml blasticidin (all cell culture reagents and antibiotics from Invitrogen, Basel, Switzerland).
# About 24 hrs before an experiment, 5×10^4 cells/well were seeded in poly-D-lysine coated, black/clear-bottomed 96-well plates. The cells were loaded with 2.5 μM Fluo-4AM in loading buffer (1×HBSS, 20 mM HEPES) for 1 hr at 37° C. and washed five times with loading buffer. The cells were transferred into a Functional Drug Screening System 7000 (Hamamatsu, Paris, France), and 11 half logarithmic serial dilutions of test compound at 37° C. were added and the cells were incubated for 10-30 min. with on-line recording of fluorescence. Following this pre-incubation step, the agonist (2S)-2-amino-4-phosphonobutanoic acid (L-AP4) was added to the cells at a concentration corresponding to EC20 with on-line recording of fluorescence; in order to account for day-to-day variations in the responsiveness of cells, the EC20 of L-AP4 was determined immediately ahead of each experiment by recording of a full dose-response curve of L-AP4.
# Responses were measured as peak increase in fluorescence minus basal (i.e. fluorescence without addition of L-AP4), normalized to the maximal stimulatory effect obtained with saturating concentrations of L-AP4. Graphs were plotted with the % maximal stimulatory using XLfit, a curve fitting program that iteratively plots the data using Levenburg Marquardt algorithm. The single site competition analysis equation used was y=A+((B−A)/(1+((x/C)D))), where y is the % maximal stimulatory effect, A is the minimum y, B is the maximum y, C is the EC50, x is the log 10 of the concentration of the competing compound and D is the slope of the curve (the Hill Coefficient). From these curves the EC50 (drug concentration at which 50% of the maximal receptor activation was achieved), the Hill coefficient as well as the maximal response in % of the maximal stimulatory effect obtained with saturating concentrations of L-AP4 were calculated (see FIG. 1).
# A depression of the signal observed after addition of the EC20 concentration of L-AP4 was indicative of an inhibitory activity of the test compound. • FIG. 1: Illustration of the experimental outline for mGlu4 PAM Ca2+ mobilization screening assay and the determination of EC50 and % Emax values.
# Chain of human mGlu4 receptor (Q14833 33-912): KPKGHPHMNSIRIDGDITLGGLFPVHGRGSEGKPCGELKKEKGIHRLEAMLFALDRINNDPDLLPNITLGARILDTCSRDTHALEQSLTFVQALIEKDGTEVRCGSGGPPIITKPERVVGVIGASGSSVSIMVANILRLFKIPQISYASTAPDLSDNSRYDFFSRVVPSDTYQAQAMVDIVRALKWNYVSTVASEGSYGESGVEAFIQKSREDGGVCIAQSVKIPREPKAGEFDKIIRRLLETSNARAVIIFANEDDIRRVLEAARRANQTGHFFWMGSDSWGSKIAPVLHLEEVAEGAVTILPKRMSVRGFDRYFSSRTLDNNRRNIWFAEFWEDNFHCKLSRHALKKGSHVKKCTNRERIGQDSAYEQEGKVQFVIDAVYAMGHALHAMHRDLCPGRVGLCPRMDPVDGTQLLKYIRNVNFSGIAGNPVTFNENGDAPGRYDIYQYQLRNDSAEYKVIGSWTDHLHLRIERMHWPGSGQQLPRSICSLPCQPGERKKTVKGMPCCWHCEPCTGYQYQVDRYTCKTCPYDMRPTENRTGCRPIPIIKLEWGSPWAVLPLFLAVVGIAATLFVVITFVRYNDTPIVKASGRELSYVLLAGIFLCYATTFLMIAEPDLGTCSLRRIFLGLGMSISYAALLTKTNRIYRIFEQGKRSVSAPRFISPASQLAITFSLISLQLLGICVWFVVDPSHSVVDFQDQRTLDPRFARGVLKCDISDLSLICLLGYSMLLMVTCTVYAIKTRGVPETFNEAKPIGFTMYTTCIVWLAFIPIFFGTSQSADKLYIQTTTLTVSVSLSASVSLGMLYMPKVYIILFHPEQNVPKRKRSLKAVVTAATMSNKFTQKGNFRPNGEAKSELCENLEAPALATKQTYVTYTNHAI
smiles,measurement,value
"O=c1[nH]c2ncncc2c(=O)n1-c1ccc(C#Cc2ccccc2)cc1Cl [Example 16, 3-[2-Chloro-4-(2-phenylethynyl)phenyl]-1H-pyrimido[4,5-d]pyrimidine-2,4-dione]",EC50,152 nM
same,Eff. (%),98%
"Cn1c(=O)n(-c2ccc(C#Cc3ccccc3)cc2Cl)c(=O)c2cncnc21 [Example 17, 3-[2-Chloro-4-(2-phenylethynyl)phenyl]-1-methyl-pyrimido[4,5-d]pyrimidine-2,4-dione]",EC50,143 nM
same,Eff. (%),101%
"Cn1c(=O)n(-c2ccc(C#Cc3ccccc3)cc2Cl)c(=O)c2cc(F)ccc21 [Example 18, 3-[2-Chloro-4-(2-phenylethynyl)phenyl]-6-fluoro-1-methyl-quinazoline-2,4-dione]",EC50,148 nM
same,Eff. (%),86%
"Cn1c(=O)n(-c2ccc(C#Cc3ccccc3)cc2Cl)c(=O)c2ccc(F)c(F)c21 [Example 19, 3-[2-Chloro-4-(2-phenylethynyl)phenyl]-7,8-difluoro-1-methyl-quinazoline-2,4-dione]",EC50,134 nM
same,Eff. (%),73%
"Cc1csc2c(=O)n(-c3ccc(C#Cc4ccccc4)cc3Cl)c(=O)n(C)c12 [Example 20, 3-[2-Chloro-4-(2-phenylethynyl)phenyl]-1,7-dimethyl-thieno[3,2-d]pyrimidine-2,4-dione]",EC50,50 nM
same,Eff. (%),74%
"CC(C)n1c(=O)n(-c2ccc(C#Cc3ccccc3)cc2Cl)c(=O)c2nccnc21 [Example 21, 3-[2-Chloro-4-(2-phenylethynyl)phenyl]-1-isopropyl-pteridine-2,4-dione]",EC50,52 nM
same,Eff. (%),89%
"CC(C)n1c(=O)n(-c2ccc(C#Cc3cccnc3)cc2Cl)c(=O)c2nccnc21 [Example 22, 3-[2-Chloro-4-[2-(3-pyridyl)ethynyl]phenyl]-1-isopropyl-pteridine-2,4-dione]",EC50,167 nM
same,Eff. (%),88%
"Cn1c(=O)n(-c2c(F)cc(C#Cc3ccccc3)cc2F)c(=O)c2ccccc21 [Example 23, 3-[2,6-Difluoro-4-(2-phenylethynyl)phenyl]-1-methyl-quinazoline-2,4-dione]",EC50,203 nM
same,Eff. (%),168%
"Cc1cccc2c(=O)n(-c3c(F)cc(C#Cc4ccccc4)cc3F)c(=O)n(C)c12 [Example 24, 3-[2,6-Difluoro-4-(2-phenylethynyl)phenyl]-1,8-dimethyl-quinazoline-2,4-dione]",EC50,26 nM
same,Eff. (%),101%
"Cn1c(=O)n(-c2c(F)cc(C#Cc3ccccc3)cc2F)c(=O)c2cccnc21 [Example 25, 3-(2,6-Difluoro-4-phenylethynyl-phenyl)-1-methyl-1H-pyrido[2,3-d]pyrimidine-2,4-dione]",EC50,89 nM
same,Eff. (%),109%
"Cc1ccc2c(=O)n(-c3c(F)cc(C#Cc4ccccc4)cc3F)c(=O)n(C)c2c1 [Example 26, 3-[2,6-Difluoro-4-(2-phenylethynyl)phenyl]-1,7-dimethyl-quinazoline-2,4-dione]",EC50,115 nM
same,Eff. (%),108%
"Cc1csc2c(=O)n(-c3c(F)cc(C#Cc4ccccc4)cc3F)c(=O)n(C)c12 [Example 27, 3-[2,6-Difluoro-4-(2-phenylethynyl)phenyl]-1,7-dimethyl-thieno[3,2-d]pyrimidine-2,4-dione]",EC50,16 nM
same,Eff. (%),83%
"Cc1csc2c(=O)n(-c3c(F)cc(C#Cc4cccnc4)cc3F)c(=O)n(C)c12 [Example 28, 3-[2,6-Difluoro-4-[2-(3-pyridyl)ethynyl]phenyl]-1,7-dimethyl-thieno[3,2-d]pyrimidine-2,4-dione]",EC50,29 nM
same,Eff. (%),86%
"O=c1c2cccc3c2n(c(=O)n1-c1c(F)cc(C#Cc2ccccc2)cc1F)CC3 [Example 29, 2-(2,6-Difluoro-4-(phenylethynyl)phenyl)-5,6-dihydro-1H-pyrrolo[3,2,1-ij]quinazoline-1,3(2H)-dione]",EC50,52 nM
same,Eff. (%),78%
"O=c1c2cccc3c2n(c(=O)n1-c1c(F)cc(C#Cc2cccnc2)cc1F)CC3 [Example 30, 2-(2,6-Difluoro-4-(pyridin-3-ylethynyl)phenyl)-5,6-dihydro-1H-pyrrolo[3,2,1-ij]quinazoline-1,3(2H)-dione]",EC50,91 nM
same,Eff. (%),89%
"O=c1[nH]c2ncsc2c(=O)n1-c1c(F)cc(C#Cc2ccccc2)cc1F [Example 31, 6-[2,6-Difluoro-4-(2-phenylethynyl)phenyl]-4H-thiazolo[4,5-d]pyrimidine-5,7-dione]",Eff. (%),85%
"Cn1c(=O)n(-c2c(F)cc(C#Cc3ccccc3)cc2F)c(=O)c2scnc21 [Example 32, 6-[2,6-Difluoro-4-(2-phenylethynyl)phenyl]-4-methyl-thiazolo[4,5-d]pyrimidine-5,7-dione]",EC50,33 nM
same,Eff. (%),104%
"Cn1cc2c(n1)c(=O)n(-c1c(F)cc(C#Cc3ccccc3)cc1F)c(=O)n2C [Example 33, 6-[2,6-Difluoro-4-(2-phenylethynyl)phenyl]-2,4-dimethyl-pyrazolo[4,3-d]pyrimidine-5,7-dione]",EC50,47 nM
same,Eff. (%),86%
"Cn1ncc2c1c(=O)n(-c1c(F)cc(C#Cc3ccccc3)cc1F)c(=O)n2C [Example 34, 6-[2,6-Difluoro-4-(2-phenylethynyl)phenyl]-1,4-dimethyl-pyrazolo[4,3-d]pyrimidine-5,7-dione]",EC50,74 nM
same,Eff. (%),85%
"CC(C)n1c(=O)n(-c2c(F)cc(C#Cc3ccccc3)cc2F)c(=O)c2nn(C)cc21 [Example 35, 6-[2,6-Difluoro-4-(2-phenylethynyl)phenyl]-4-isopropyl-2-methyl-pyrazolo[4,3-d]pyrimidine-5,7-dione]",EC50,30 nM
same,Eff. (%),89%
"CC(C)n1c(=O)n(-c2c(F)cc(C#Cc3ccccc3)cc2F)c(=O)c2c1cnn2C [Example 36, 6-[2,6-Difluoro-4-(2-phenylethynyl)phenyl]-4-isopropyl-1-methyl-pyrazolo[4,3-d]pyrimidine-5,7-dione]",EC50,155 nM
same,Eff. (%),89%
"CC(C)n1c(=O)n(-c2c(F)cc(C#Cc3ccccc3)cc2F)c(=O)c2cccnc21 [Example 37, 3-[2,6-Difluoro-4-(2-phenylethynyl)phenyl]-1-isopropyl-pyrido[2,3-d]pyrimidine-2,4-dione]",EC50,88 nM
same,Eff. (%),73%
"Cc1ccnc2c(=O)n(-c3c(F)cc(C#Cc4ccccc4)cc3F)c(=O)n(C)c12 [Example 38, 3-[2,6-Difluoro-4-(2-phenylethynyl)phenyl]-1,8-dimethyl-pyrido[3,2-d]pyrimidine-2,4-dione]",EC50,108 nM
same,Eff. (%),108%
"Cn1c(=O)n(-c2c(F)cc(C#Cc3ccccc3)cc2F)c(=O)c2nsnc21 [Example 39, 6-[2,6-Difluoro-4-(2-phenylethynyl)phenyl]-4-methyl-[1,2,5]thiadiazolo[3,4-d]pyrimidine-5,7-dione]",EC50,17 nM
same,Eff. (%),107%
"CC(C)n1c(=O)n(-c2c(F)cc(C#Cc3ccccc3)cc2F)c(=O)c2nsnc21 [Example 40, 6-[2,6-Difluoro-4-(2-phenylethynyl)phenyl]-4-isopropyl-[1,2,5]thiadiazolo[3,4-d]pyrimidine-5,7-dione]",EC50,23 nM
same,Eff. (%),104%
"Cc1cccc2c1c(=O)n(-c1ccc(C#Cc3ccccc3)cc1Cl)c(=O)n2C [Example 41, 3-[2-Chloro-4-(2-phenylethynyl)phenyl]-1,5-dimethyl-quinazoline-2,4-dione]",EC50,231 nM
same,Eff. (%),98%
"CC(C)n1c(=O)n(-c2c(F)cc(C#Cc3cccnc3)cc2Cl)c(=O)c2ccccc21 [Example 42, 3-[2-Chloro-6-fluoro-4-[2-(3-pyridyl)ethynyl]phenyl]-1-isopropyl-quinazoline-2,4-dione]",EC50,83 nM
same,Eff. (%),80%
"Cc1cccc2c(=O)n(-c3c(F)cc(C#Cc4cccnc4)cc3Cl)c(=O)n(C)c12 [Example 43, 3-[2-Chloro-6-fluoro-4-[2-(3-pyridyl)ethynyl]phenyl]-1,8-dimethyl-quinazoline-2,4-dione]",EC50,74 nM
same,Eff. (%),107%
"Cn1c(=O)n(-c2ncc(C#Cc3ccccc3)cc2Cl)c(=O)c2ccccc21 [Example 44, 3-[3-Chloro-5-(2-phenylethynyl)-2-pyridyl]-1-methyl-quinazoline-2,4-dione]",EC50,372 nM
same,Eff. (%),180%
